This assay has as its system CD2F1 mice, L1210 leukemia ip, survival T/C. The experiment in a line: NCI In Vivo Anticancer Drug Screen. Data for tumor model L1210 Leukemia (intraperitoneal) in CD2F1 (CDF1) mice. Conditions: higher = longer survival. The method in brief:
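Antitumor effect is scored in animals hosting a serially transplanted tumor. Values compare compound-dosed animals against vehicle-only controls as a simple quotient.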

Setting [1] is: endpoint: mean survival time, dose: 50.0 mg/kg/injection, schedule: Q01DX009 (ip), vehicle: saline with Tween-80.
[2] abbreviates: endpoint: mean survival time, dose: 100.0 mg/kg/injection, schedule: Q01DX009 (ip), vehicle: saline with Tween-80.
[3] abbreviates: endpoint: mean survival time, dose: 200.0 mg/kg/injection, schedule: Q01DX009 (ip), vehicle: saline with Tween-80.
Where [4] appears, read: endpoint: mean survival time, dose: 100.0 mg/kg/injection, schedule: Q04DX003 (ip), vehicle: saline with Tween-80.
The mark [5] stands for this setting: endpoint: mean survival time, dose: 200.0 mg/kg/injection, schedule: Q04DX003 (ip), vehicle: saline with Tween-80.

Consider ten compounds from PubChem BioAssay AID256 (DTP/NCI, 2004).

Several values for one entry are separate records, joined by “and”; a condition that tells them apart may be missing. Identical values can stand only once. Inconclusive results and toxic doses are left out.

On to `Cc1ccc(NC(=O)OCCOc2ccc([N+](=O)[O-])cc2)c(C)c1`, for which the T/C under setting [1] is 93 % of control, the T/C under setting [2] is 98 % of control and the T/C under setting [3] was 89 % of control.
With `CC(C)C(O)(C(=O)O)C(C)O` (stereo not given), the T/C (endpoint: mean survival time, dose: 12.5 mg/kg/injection, schedule: Q01DX009 (ip), vehicle: water) is 96 % of control; the T/C (endpoint: mean survival time, dose: 25.0 mg/kg/injection, schedule: Q01DX009 (ip), vehicle: water) was 94 % of control; the T/C (endpoint: mean survival time, dose: 50.0 mg/kg/injection, schedule: Q01DX009 (ip), vehicle: water) is 88 % of control; the T/C (endpoint: mean survival time, dose: 100.0 mg/kg/injection, schedule: Q01DX009 (ip), vehicle: water) is 89 % of control.
Regarding `Cc1ccc(S(=O)(=O)C[n+]2ccccc2N)cc1`, the T/C is, setting by setting: (endpoint: mean survival time, dose: 25.0 mg/kg/injection, schedule: Q04DX002 (ip), vehicle: saline with Tween-80) 102 % of control; (endpoint: mean survival time, dose: 50.0 mg/kg/injection, schedule: Q04DX002 (ip), vehicle: saline with Tween-80) 95 % of control; (endpoint: mean survival time, dose: 100.0 mg/kg/injection, schedule: Q04DX002 (ip), vehicle: saline with Tween-80) 93 % of control and 95 % of control.
As for `CSc1nc2[nH]c(C)cc2c(=O)[nH]1`, the T/C runs as follows: (endpoint: median survival time, dose: 50.0 mg/kg/injection, schedule: Q01DX005 (ip), vehicle: saline) 102 % of control; (endpoint: median survival time, dose: 100.0 mg/kg/injection, schedule: Q01DX005 (ip), vehicle: saline) 95 % of control; (endpoint: median survival time, dose: 200.0 mg/kg/injection, schedule: Q01DX005 (ip), vehicle: saline) 92 % of control.
Consider `CN(C)C(=O)Nc1cccc(OS(=O)(=O)N(C)C)c1`, for which the T/C was 99 % of control under setting [4] and 96 % of control under setting [5].
Regarding `O=c1n[n+]([O-])ccn1C1OC(CO)C(O)C1O` (stereo not given), the T/C by setting is: (endpoint: mean survival time, dose: 50.0 mg/kg/injection, schedule: Q01DX009 (ip), vehicle: saline) 107 % of control; (endpoint: mean survival time, dose: 100.0 mg/kg/injection, schedule: Q01DX009 (ip), vehicle: saline) 120 % of control and 121 % of control; (endpoint: mean survival time, dose: 300.0 mg/kg/injection, schedule: Q01DX009 (ip), vehicle: saline) 157 % of control and 173 % of control; (endpoint: mean survival time, dose: 400.0 mg/kg/injection, schedule: Q01DX009 (ip), vehicle: saline) 150 % of control; (endpoint: mean survival time, dose: 600.0 mg/kg/injection, schedule: Q01DX009 (ip), vehicle: saline) 91 % of control; (endpoint: median survival time, dose: 200.0 mg/kg/injection, schedule: Q01DX009 (ip), vehicle: saline) 150 % of control. The T/C is, setting by setting: (endpoint: median survival time, dose: 288.0 mg/kg/injection, schedule: Q01DX009 (ip), vehicle: saline) 161 % of control; (endpoint: median survival time, dose: 300.0 mg/kg/injection, schedule: Q01DX009 (ip), vehicle: saline) 174 % of control; (endpoint: median survival time, dose: 480.0 mg/kg/injection, schedule: Q01DX009 (ip), vehicle: saline) 180 % of control.
As for `CC(C)C1=CCC2C(=C1)CCC1C(C)(C(N)=O)CCCC21C` (stereo not given), the T/C by setting is: under setting [4], 95 % of control; under setting [5], 88 % of control; (endpoint: mean survival time, dose: 400.0 mg/kg/injection, schedule: Q04DX003 (ip), vehicle: saline with Tween-80) 90 % of control.
Take `COc1ccc([NH-])cc1.COc1ccc([NH-])cc1.[Br][Pt+2][Br]`: the T/C is 111 % of control (endpoint: mean survival time, dose: 3.12 mg/kg/injection, schedule: Q04DX003 (ip), vehicle: distilled water + Tween-80); 108 % of control (endpoint: mean survival time, dose: 6.25 mg/kg/injection, schedule: Q04DX003 (ip), vehicle: distilled water + Tween-80); 114 % of control (endpoint: mean survival time, dose: 12.5 mg/kg/injection, schedule: Q04DX003 (ip), vehicle: distilled water + Tween-80); 111 % of control (endpoint: mean survival time, dose: 25.0 mg/kg/injection, schedule: Q04DX003 (ip), vehicle: distilled water + Tween-80); 98 % of control (endpoint: mean survival time, dose: 50.0 mg/kg/injection, schedule: Q04DX003 (ip), vehicle: distilled water + Tween-80).
Consider `CCCc1ccc(NS(=O)(=O)c2ccc(C)cc2)cc1`, for which the T/C (endpoint: mean survival time, dose: 100.0 mg/kg/injection, schedule: Q04DX002 (ip), vehicle: Klucel (hydroxypropylcellulose) (HPC)) was 98 % of control; the T/C (endpoint: mean survival time, dose: 200.0 mg/kg/injection, schedule: Q04DX002 (ip), vehicle: Klucel (hydroxypropylcellulose) (HPC)) is 103 % of control; the T/C (endpoint: mean survival time, dose: 400.0 mg/kg/injection, schedule: Q04DX002 (ip), vehicle: Klucel (hydroxypropylcellulose) (HPC)) was 92 % of control.
Consider `Cc1ccccc1CC(C)c1ccccc1` (stereo not given), for which the T/C reads like this: under setting [1], 101 % of control; under setting [2], 101 % of control; under setting [4], 90 % of control; under setting [3], 90 % of control; under setting [5], 88 % of control.
